# Test results as given in patent US12415926B2, “Small tunable fluorophores for the detection and imaging of biomolecules” (The University Court of the University of Edinburgh, priority 2019, dated 2025).
# Legend:
# [1] = Optical properties of SCOTfluors (absorbance, emission, extinction coefficient, quantum yield, solvatochromism); type: physicochemical
# Experimental: All compounds were dissolved in different organic solvents, including toluene, chloroform, tetrahydrofuran, ethanol, DMSO and water (final concentrations: 10-50 μM). Fluorescence spectra were acquired on a spectrophotometer upon excitation at their maxima absorbance wavelengths.
# The optical properties of SCOTfluor-80, 79, 78, 76 and 81 were compared with the properties of the original NBD.
# Neutrophils = assay: Uptake of lactic acid analogue in live cells by flow cytometry (hypoxia/normoxia, lactate competition); type: cell-based, human
# Experimental: (§1) B) Fluorescence emission of live cells after incubation with compound SCOTfluor-84 (100 μM) at different oxygen tensions (normoxia: blue; hypoxia: red) and in normoxic cells after competition with lactic acid (no lactate: red; 5 mM lactate: blue). Values as means and s.e.m as error bars. C) Time-lapse TIRF tracking of fluorescent particles in untreated (top) and DMOG-treated (10 μM, bottom) HeLa cells after incubation with compound SCOTfluor-84 (100 μM). Scale bars: 1 μm. D) Histograms of the diffusion coefficients of fluorescent particles in normoxic (blue) and hypoxic (red) cells. Dotted lines delineate fast and slow diffusion species. Mean diffusion coefficients (D) were determined after averaging the tracks of multiple particles for each condition (n=1,009 for untreated; n=2,906 for DMOG-treated).
# Ex vivo experiments with fresh human peripheral blood from healthy donors were approved by the Accredited Medical Regional Ethics Committee (AMREC, reference number 15-HV-013). Peripheral blood polymorphonuclear cells from healthy volunteers were isolated as previously described. Briefly, citrated blood (3.8%) was centrifuged at room temperature at 350 g for 20 min, platelet-rich plasma was removed and separation from erythrocytes was achieved by Dextran sedimentation and fractionation of leukocytes using isotonic Percoll gradient. […] Flow cytometry data were analyzed using FlowJo software. […]
# HeLa cells [2] = assay: TIRF single-particle tracking of intracellular diffusion; type: cell-based, human; settings: DMOG-treated (10 μM) vs untreated, 100 μM
# Experimental: as §1
# Imaging was performed using a home-built, bespoke single-molecule total internal reflection fluorescence (TIRF) microscope. […] Fluorescence collected by the same objective was separated from the returning TIR beam by a dichroic mirror DI02-R514 (Semrock) for 515 nm and was passed through appropriate filters [515 nm: BLP01-561R, FF01-607/36 (Semrock)]. Fluorescence was then passed through a 2.5× beam expander and recorded on an EMCCD camera (Delta Evolve 512, Photometrics) operating in frame transfer mode (EMGain=11.5 e^−/ADU and 250 ADU/photon). […]
# HeLa cells [3] = assay: Cytotoxicity assay in HeLa cells; settings: 100 μM and 75 μM (1% DMSO), 4 h at 37° C.
# Experimental: Cell viabilities were normalized to incubation in cell culture media under the same experimental conditions. A solution of 40% DMSO in cell culture media was used as a known cytotoxic positive control. Values represented as means±s.e.m. (n=3).
smiles,measurement,setting,value
"O=C(O)[C@H](O)CNc1ccc([N+](=O)[O-])c2n[se]nc12 [SCOTfluor-84, (R)-2-hydroxy-3-((7-nitrobenzo[c][1,2,5]selenadiazol-4-yl)amino)propanoic acid]",emission,[1],~605 nm
same,uptake in hypoxic vs normoxic cells,"Neutrophils; hypoxic (1% O2) vs normoxic (20% O2), 100 μM",Increased uptake
same,fluorescence staining under competition with excess lactic acid,"Neutrophils; normoxic cells, 5 mM lactic acid",markedly reduced
same,"mean diffusion coefficients of fluorescent particles, hypoxic vs normoxic cells",HeLa cells [2],higher mean diffusion coefficients
same,cytotoxicity (cell viability),HeLa cells [3],no significant cytotoxicity
